# Assay results as given in patent publication US11007136B2, “Cosmetic composition for wrinkle reduction containing gypenoside isolated from Gynostemma pentaphyllum” (CELLTRION INC., priority 2015, dated 2021).
# System: human dermal fibroblast neonatal
# Test: Cytotoxicity test (MTT)
# Assay type: cell-based
# Details: for HDFn Viability: 48 h, % control; for cytotoxicity: at concentrations promoting procollagen synthesis
# Experimental: A human dermal fibroblast neonatal (Cascade Co.) was inoculated into a 24-well microplate (5×10^4 cells/well) by using a medium, in which Dulbeco's Modified Eagle's Medium (DMEM) was supplemented with 10% fetal bovine serum, thus being cultured under a condition of 37° C. and 5% CO2 for 24 hours. Then, the same was replaced with a serum-free DMEM medium and cultured for 24 hours, thus treating the Gynostemma pentaphyllum gypenoside fraction obtained from the Example 1 and the gypenosides UL4 and UL5 isolated therefrom, respectively. After being cultured for 48 hours, an MTT solution was added thereto, thus being cultured for four hours. The medium was removed therefrom and DMSO was added thereto, thus dissolving an MTT formazan. The MTT formazan dissolved in the DMSO was taken out and an optical density thereof was measured at 570 nm, thus being compared to a group without sample treatment and indicated as % control.
Compound,HDFn Viability (5 ug/ml) [%],HDFn Viability (10 ug/ml) [%],HDFn Viability (50 ug/ml) [%],cytotoxicity
"CC(C)=CC1C[C@](O)([C@H]2CC[C@]3(C)[C@@H]2CC[C@@H]2[C@@]4(C=O)CC[C@H](O[C@@H]5OC[C@H](O)[C@H](O[C@@H]6O[C@H](CO)[C@@H](O)[C@H](O)[C@H]6O)[C@H]5O[C@@H]5O[C@@H](C)[C@H](O)[C@@H](O)[C@H]5O)C(C)(C)[C@@H]4CC[C@]23C)[C@H](O)O1 (stereo partly drawn) [Gypenoside UL5, (23ξ)-3β,20β,21α-trihydroxy-19-oxo-21,23-epoxy-dammar-24-ene-3-O-[α-L-rhamnopyranosyl (1→2)][β-D-glucopyranosyl (1→3)]-α-L-arabinopyranoside]",100,102,113,did not show any cytotoxicity
"CC(C)=CC1C[C@](O)([C@H]2CC[C@]3(C)[C@@H]2CC[C@@H]2[C@@]4(C=O)CC[C@H](O[C@@H]5OC[C@H](O)[C@H](O[C@@H]6OC[C@@H](O)[C@H](O)[C@H]6O)[C@H]5O[C@@H]5O[C@@H](C)[C@H](O)[C@@H](O)[C@H]5O)C(C)(C)[C@@H]4CC[C@]23C)[C@H](O)O1 (stereo partly drawn) [Gypenoside UL4, (23ξ)-3β,20β,21α-trihydroxy-19-oxo-21,23-epoxy-dammar-24-ene-3-O-[α-L-rhamnopyranosyl (1→2)][β-D-xylopyranosyl (1→3)]-α-L-arabinopyranoside]",98,100,106,did not show any cytotoxicity
